Results taken from ChEMBL document CHEMBL3856241, “Discovery of novel 5-hydroxy-4-pyridone-3-carboxy acids as potent inhibitors of influenza Cap-dependent endonuclease” (Bioorg Med Chem Lett, 2016).
pEC50, pIC50: −log10 of the molar value.

Test: Inhibition of Influenza A virus A/WSN/33(H1N1) cap-dependent endonuclease using 3'-BHQ2 labeled 30-mer RNA as substrate after 60 mins by fluorescence assay
Parameters: species or system Influenza A virus (A/WSN/1933(H1N1))
Conditions: not given

Going from `O=C(O)c1cn(CCc2ccc(O)cc2)cc(O)c1=O` to `O=C(O)c1cn(CCc2ccc(Cl)cc2)cc(O)c1=O`, the pIC50 rises from 5.60 to 6.08 (0.48 log units). The second is the more potent here.

First: Cn1cc(C2(Cn3cc(O)c(=O)c(C(=O)O)c3)CCCC2)c2ncccc21
Second: Cn1cc(C2(Cn3cc(O)c(=O)c(C(=O)O)c3)CCCC2)c2ccccc21
The pIC50 of the first is 0.46 log units lower: 7.33 for the first, 7.79 for the second.

`O=c1ccn(Cc2ccc(F)cc2)cc1O` and `O=C(O)c1cn(Cc2ccc(F)cc2)ccc1=O` cannot be ordered by pIC50: under 3.30 for the first, under 3.30 for the second.

Compared with `O=C(O)c1cn(CC2(c3cccc(Cl)c3)CCCC2)cc(O)c1=O`, `O=C(O)c1cn(CC2(c3ccc(Cl)cc3)CCCC2)cc(O)c1=O` is 0.23 log units lower in pIC50: 8.04 for the first, 7.81 for the second. The first is the more potent here.

`O=C(O)c1cn(CC2(c3ccccc3)CCCC2)cc(O)c1=O` and `O=C(O)c1cn(CC2(c3ccccc3)CCCCC2)cc(O)c1=O` are within 0.2 log units of each other in pIC50: 7.22 for the first, 7.21 for the second.

First: O=C(O)c1cn(Cc2ccccc2)cc(O)c1=O
Second: O=C(O)c1cn(CCc2ccccc2)cc(O)c1=O
The pIC50 of the first is 0.47 log units lower: 5.68 for the first, 6.15 for the second.

`O=C(O)c1cn(CC2(c3cccc(Oc4ccccc4)c3)CCCC2)cc(O)c1=O` and `O=C(O)c1cn(CC2(c3ccc4ccccc4c3)CCCC2)cc(O)c1=O` are within 0.2 log units of each other in pIC50: 7.37 for the first, 7.55 for the second.

Going from `O=C(O)c1cn(CCc2cccc(Cl)c2)cc(O)c1=O` to `O=C(O)c1cn(CCc2ccccc2Cl)cc(O)c1=O`, the pIC50 rises from 6.37 to 6.62 (0.25 log units). The second is the more potent here.

Compared with `O=C(O)c1cn(-c2ccc(F)cc2)cc(O)c1=O`, `O=C(O)c1cn(Cc2ccc(F)cc2)cc(O)c1=O` is 0.30 log units higher in pIC50: 5.19 for the first, 5.49 for the second.

First: O=C(O)c1cn(CCc2ccc(-c3ccc(F)cc3)cc2)cc(O)c1=O
Second: O=C(O)c1cn(CCCc2ccccc2)cc(O)c1=O
The pIC50 of the first is 0.42 log units lower: 5.43 for the first, 5.85 for the second.

Going from `O=C(O)c1cn(CC2(c3ccccc3Cl)CCCC2)cc(O)c1=O` to `O=C(O)c1cn(CC2(c3ccccc3)CCC2)cc(O)c1=O`, the pIC50 falls from 7.44 to 6.98 (0.46 log units).

`O=C(O)c1cn(CC2(c3ccc4cccnc4c3)CCCC2)cc(O)c1=O` and `O=C(O)c1cn(CC2(c3ccnc(-n4cccn4)c3)CCCC2)cc(O)c1=O` are within 0.2 log units of each other in pIC50: 7.79 for the first, 7.75 for the second.

Going from `O=C(O)c1cn(CCCCc2ccccc2)cc(O)c1=O` to `O=C(O)c1cn(CC2(c3ccccc3)CC2)cc(O)c1=O`, the pIC50 rises from 5.55 to 6.40 (0.85 log units). The second is the more potent here.

Compared with `O=C(O)c1cn(CC2(n3ccc4cccnc43)CCCC2)cc(O)c1=O`, `O=C(O)c1cn(CC2(c3ccc4c(c3)OCO4)CCCC2)cc(O)c1=O` is 0.50 log units lower in pIC50: 8.29 for the first, 7.79 for the second. The first is the more potent here.

Test: Antiviral activity against Influenza A virus A/WSN/33(H1N1) infected in MDCK cells assessed as inhibition of virus-induced cytopathic effect after 3 days by WST-8 assay
Assay type: functional, cell-based, Influenza A virus (A/WSN/1933(H1N1))
Conditions: 72 h

Work on `O=C(O)c1cn(CC2(n3ccc4cccnc43)CCCC2)cc(O)c1=O` yielded a pEC50 of 6.70.
